Data: patent US20020037844A1, “SYNTHETIC PEPTIDE FOR TREATMENT OF AUTOIMMUNE ARTHRITIS” (priority 1993, published 2002)

Columns and labels:
CII-primed, bulk T cells = experiment: Inhibition of antigen presentation to CII-primed bulk T cells (co-culture); assay type: cell-based, DBA/1 mice; details: analog co-cultured with CII 245-270 or native CII at various ratios; FIG. 2
Description: T cell stimulation assays were performed in 96 well plates and the degree of stimulation was quantitated by measurements of γ-IFN production. Myers, L. K., K. Terato, J. M. Seyer, J. M. Stuart, and A. H. Kang, 1992, Characterization of a Tolerogenic T Cell Epitope of Type II Collagen and its Relevance to Collagen-Induced Arthritis. J. Immunol. 149:1439. The disclosure of this article is incorporated by reference. Spleens and lymph nodes from mice immunized with CII 14 to 21 days prior were individually minced into single cell suspensions in Hank's Balanced Salt Solution (BSS) and washed 3 times. […] Supernatants were collected from 72 to 120 hours later and either […] analyzed for γ-IFN production immediately or stored at −70° C. prior to analysis. Quantitative measurement of murine gamma interferon was done using a solid-phase enzyme-linked immunosorbent assay (Amgen Biologicals, Thousand Oaks, Calif.). […] The absorbance was measured at 405 nm with a spectrophotometer, and a standard curve was obtained by plotting the absorbance versus the corresponding concentration of the standards. Units of γ-interferon were calculated based on NIH standard number Gg02-901-533. […]

[1] = target: T1, I-A^q on the surface of antigen presenting cells (Mus musculus, UniProt P04227+P06342); experiment: Competitive antigen presentation assay: pulsed APC presented to CII 245-270 specific T-cell hybridomas, IL-2 titer; assay type: cell-based, DBA/1 mice; details: conclusion from Table II
T1 construct: containing 4×10^5 syngenic spleen cells and 10^5 T-hybridoma cells; from tissue; host or cells: spleen cells syngeneic to DBA/1 mice (H-2q), used as antigen presenting cells
Description: Lymph node cells were obtained from DBA/1 mice immunized with α1(II)-CB11 emulsified with complete Freund's adjuvant and cultured in vitro with α1(II)-CB11 for five days, and in the presence of IL-2 for three days before fusion. Hybridoma cells reactive to CB11 [CII 245-270] and CII were cloned by limiting dilution to 0.3 cells/well. Antigen presentation experiments were performed in 96 well […] plates in a total volume of 0.3 ml containing 4×10^5 syngenic spleen cells and 10^5 T-hybridoma cells. For competitive inhibition assays, spleen cells were pulsed with various ratios of inhibitor to indicator peptide and washed several times prior to addition to the antigen presentation culture. Cell cultures were maintained at 37° C. in 5% humidified CO2 for 20 to 24 hours, after which seven 80 μl two-fold serial dilutions were made for determination of IL-2 titers. Four thousand HT-2 cells were added to each supernatant dilution, and after 16 to 20 hours HT-2 cell viability was evaluated by visual inspection. IL-2 titers were determined by the reciprocal of the highest two-fold serial dilution maintaining 90% viability of the HT-2 cells. Results are presented as units of IL-2 per ml of undiluted supernatant as described by Kapper et al. Kappler, J., J. White, D. Wegman, E. Mustain, and P. Marrack, 1982, Antigen Presentation by Ia^+B Cell Hybridomas to H-2 Restricted T Cell Hybridomas. Proc. Natl. Acad. Sci. USA 79:3604. The disclosure of this article is incorporated by reference.
The inability of some analog peptides to stimulate T cells likely occurs either because of disruption of peptide binding to the I-A^q molecule or the inability of the T cell receptor to recognize the peptide. In order to determine whether the analog peptides could bind to the class II molecule, competitive antigen presentation assays were performed. Antigen presenting cells (APC) were pulsed with various molar ratios of CII 245-270 and an analog peptide, and tested for their ability to stimulate CII 245-270 specific T cell hybridomas.

CII-primed T cells = experiment: T cell stimulation assay, γ-IFN production by CII-primed spleen and lymph node cells; assay type: cell-based, mice; details: CII-primed T cells cultured with 100 μm of antigen; FIG. 1
Description: Nowarck H., E. Hahn, R. Timple, 1976, “Requirements for T Cells in the Antibody Response of Mice to Calf Skin Collagen,” J. Immunol. 30:29. Each peptide was cultured with pooled spleen and lymph node cells from CII-immunized mice, and culture supernatant fluids were tested for the presence of γ-interferon as an indicator of T cell stimulation. T cell hybridomas were established by polyethylene glycol-induced fusion of lymph node cells with the T cell receptor α^−/β^−thymoma line, BW5147. White, M., M. Blackman, J. Bill, J. Kappler, P. Marrack, D. P. Gold, and W. Born, 1989, Two Better Cell Lines for Making Hybridomas Expressing Specific T Cell Receptors. J. Immunol. 143:1822. […]
T cell stimulation assays were performed in 96 well plates and the degree of stimulation was quantitated by measurements of γ-IFN production. […] Supernatants were collected from 72 to 120 hours later and either […] analyzed for γ-IFN production immediately or stored at −70° C. prior to analysis. Quantitative measurement of murine gamma interferon was done using a solid-phase enzyme-linked immunosorbent assay (Amgen Biologicals, Thousand Oaks, Calif.). […] The absorbance was measured at 405 nm with a spectrophotometer, and a standard curve was obtained by plotting the absorbance versus the corresponding concentration of the standards. Units of γ-interferon were calculated based on NIH standard number Gg02-901-533. […]

[2] = system: collagen induced arthritis (CIA) in DBA/1 mice; experiment: Collagen induced arthritis, simultaneous immunization with CII and peptide; assay type: in vivo; details: co-injected with native CII, molar ratio CII:peptide 1:480
[3] = system: collagen induced arthritis in neonatally tolerized mice; experiment: Neonatal tolerance: peptide given at birth, CII challenge at eight weeks, arthritis observed; assay type: in vivo; details: administered to neonatal mice prior to immunization with CII
Text: To measure the incidence of arthritis in immunized mice, individuals examined and scored each of the forepaws and hind paws on a scale of 0-4 as described in Wooley, P. H., H. W. Luthra, J. M. Stuart and C. S. David. 1981. “Type 11 Collagen-induced Arthritis in Mice”. I. Major Histocompatibility Complex (I region) Linkage and Antibody Correlates. J. Exp. Med. 154:688. This article is incorporated herein by reference. There were two separate examiners, one of whom was unaware of the identity of the treatment groups. Each mouse was scored three times a week beginning three weeks post immunization and continuing through 8 weeks post immunization. The incidence of arthritis (number of animals with one or more arthritic limbs) was reported at 6 weeks post immunization, the time point at which the control group reached its peak of disease. The incidence of arthritis in various groups of mice was compared using Fisher's Exact Test. Student's T test was used to compare means of antibody responses to CII.
The foregoing data support the hypothesis that analog peptide CII 245-270[s260, 261, 263] competes for binding to I-A^q. […] Synthetic peptides were solubilized directly in phosphate buffered saline (PBS) at a concentration of 1 mg/ml. […]

[4] = system: collagen induced arthritis in neonatally tolerized mice; details: Myers et al. 1989, J. Exp. Med. 170:1999; cited from earlier work
[5] = system: antibodies reactive with type II collagen; experiment: Serum antibodies to CII by ELISA in co-immunized mice; assay type: in vivo, DBA/1 mice; details: molar ratio CII:peptide 1:480; serum four weeks after immunization; mean
Description: (§1) Mice were bled at four weeks after immunization and the serum was tested for antibodies reactive with type II collagen by enzyme-linked immunoassay (ELISA) described in Stuart, J. M., A. S. Townes, and A. H. Kang. 1982. Nature and Specificity of the Immune Response to Collagen in Type II Collagen-Induced Arthritis in Mice, J. Clin. Invest. 69:673. The disclosure of this article is incorporated by reference An anti-CII serum standard was used in each assay. A standard curve was derived by computer analysis using a 4 parameter logistic curve. Results are reported as units of activity, derived by comparison of test sera with the curve derived from the anti-CII standard which was arbitrarily defined as having 50 units of activity. Sera from mice were tested individually, and means were calculated for each experimental group.
In order to assess the effects of co-immunizing mice with both CII 245-270[s260, 261, 263] and CII, the mean antibody titers to native CII were measured for each immunization group in Table III, four weeks after immunization (Table IV).

antibodies to CII = experiment: Serum antibodies to CII by ELISA in neonatally treated mice; assay type: in vivo; details: 100 μg antigen in IFA intraperitoneally within 24 hours of birth; serum four weeks after immunization; mean titer
Description: as §1
The foregoing data support the hypothesis that analog peptide CII 245-270[s260, 261, 263] competes for binding to I-A^q. […] Synthetic peptides were solubilized directly in phosphate buffered saline (PBS) at a concentration of 1 mg/ml. Neonatal mice were tolerized using a protocol described by Gammon et al.^21 in which antigen emulsified with incomplete Freund's adjuvant was injected intraperitoneally. Gammon, Dunn, Shastri, Oki, Wilbur, Sercarz, 1986, Neonatal T Cell Tolerance to Minimal Immunogenic Peptides is Caused by Clonal Inactivation, Nature (Lond) 319:413. […]

Substance | T cell responses to CII 245-270 and CII (CII-primed, bulk T cells) | Binding to I-A^q / competition for presentation of the wild type peptide to T-cell hybridomas [1] | T cell stimulation (γ-interferon) compared to the wild type peptide CII 245-270 (CII-primed T cells) | Development / incidence of arthritis, in words [2] | Effectiveness as neonatal tolerogen, in words [3] | Suppression of arthritis as neonatal tolerogen [4] | Antibodies to CII [5] | Antibodies to CII (antibodies to CII)
CII 245-270 [s266, 267, 269]: analog of CII 245-270 with D at 266, T at 267, A at 269 (type I collagen based substitutions) (PTGPLGPKGQTGELGIAGFKGDTGAK) | no significant effect | did not compete | did not respond |  |  |  |  | 
Pro - Thr - Gly - Pro - Leu - Gly - Pro - Lys - Gly - Gin - Thr - Gly - Glx - Leu - Gly - Ile - Ala - Gly - Phe - Lys - Gly - Glx - Gln - Gly - Pro - Lys [CII 245-270, reference compound] |  |  |  | did not alter the incidence of disease | effective tolerogen | suppresses arthritis | 54 ± 25 units of activity | 18.5 ± 8
